From ChEMBL document CHEMBL5260799, “Pterocarpan scaffold: A natural lead molecule with diverse pharmacological properties” (Eur J Med Chem, 2017)
Values after ≈ are worked out from the molar mass of the structure shown.

What was measured:
Staphylococcus aureus [1] = test: Antibacterial activity against methicillin-resistant Staphylococcus aureus ATCC 4330 assessed as bacterial growth inhibition; type: functional
[2] = tested on: Mycobacterium tuberculosis; test: Antimycobacterial activity against Mycobacterium tuberculosis H37Ra assessed as reduction in bacterial growth by MABA method; type: functional
Plasmodium falciparum [3] = test: Antiplasmodial activity against Plasmodium falciparum K1 assessed as reduction in parasite growth by fluorescence based assay; type: functional, organism-based
[4] = tested on: Mycobacterium tuberculosis; test: Antimycobacterial activity against Mycobacterium tuberculosis H37Rv assessed as inhibition of bacterial growth by Microplate alamar blue assay; type: functional, organism-based
KB [5] = test: Cytotoxicity against human KB cells assessed as reduction in cell viability by colorimetric assay; type: functional, cell-based
Breast carcinoma cell = test: Cytotoxicity against human Breast carcinoma cell assessed as reduction in cell viability by colorimetric assay; type: functional, cell-based
NCI-H187 [6] = test: Cytotoxicity against human NCI-H187 cells assessed as reduction in cell viability by colorimetric assay; type: functional, cell-based
Enterococcus [7] = test: Antibacterial activity against vancomycin-resistant Enterococcus GCMT1 assessed as reduction in bacterial growth incubated for 24 hrs by microbroth dilution method; type: functional
Enterococcus [8] = test: Antibacterial activity against vancomycin-resistant Enterococcus GCMT3 assessed as reduction in bacterial growth incubated for 24 hrs by microbroth dilution method; type: functional
Streptococcus agalactiae = test: Antibacterial activity against Streptococcus agalactiae ATCC 12386 assessed as reduction in bacterial growth by microbroth dilution method; type: functional
Staphylococcus aureus [9] = test: Antibacterial activity against Staphylococcus aureus ATCC 25923 assessed as bacterial growth inhibition by broth dilution method; type: functional, organism-based
Staphylococcus aureus [10] = test: Antibacterial activity against methicillin-resistant Staphylococcus aureus ATCC 25923 assessed as bacterial growth inhibition by broth dilution method; type: functional, organism-based
KB [11] = test: Cytotoxicity against human KB cells assessed as reduction in cell viability by resazurin microplate assay; type: functional, cell-based
MCF7 = test: Cytotoxicity against human MCF7 cells assessed as reduction in cell viability by resazurin microplate assay; type: functional, cell-based
NCI-H187 [12] = test: Cytotoxicity against human NCI-H187 cells assessed as reduction in cell viability by resazurin microplate assay; type: functional, cell-based
Plasmodium falciparum [13] = test: Antiplasmodial activity against Plasmodium falciparum W2 assessed as reduction in plasmodial growth after 48 hrs by fluorescence based analysis; type: functional, organism-based; details: W2, 48 h
Candida albicans [14] = test: Antifungal activity against Candida albicans ATCC 10231 assessed as reduction in fungal growth by NCCLS method; type: functional
Candida albicans [15] = test: Antifungal activity against multidrug-resistant Candida albicans ATCC 10231 assessed as reduction in fungal growth by NCCLS method; type: functional
Maltase-glucoamylase = Maltase-glucoamylase (Homo sapiens, UniProt O43451); test: Inhibition of human Alpha-glucosidase
Sequence of Maltase-glucoamylase (O43451 whole entry): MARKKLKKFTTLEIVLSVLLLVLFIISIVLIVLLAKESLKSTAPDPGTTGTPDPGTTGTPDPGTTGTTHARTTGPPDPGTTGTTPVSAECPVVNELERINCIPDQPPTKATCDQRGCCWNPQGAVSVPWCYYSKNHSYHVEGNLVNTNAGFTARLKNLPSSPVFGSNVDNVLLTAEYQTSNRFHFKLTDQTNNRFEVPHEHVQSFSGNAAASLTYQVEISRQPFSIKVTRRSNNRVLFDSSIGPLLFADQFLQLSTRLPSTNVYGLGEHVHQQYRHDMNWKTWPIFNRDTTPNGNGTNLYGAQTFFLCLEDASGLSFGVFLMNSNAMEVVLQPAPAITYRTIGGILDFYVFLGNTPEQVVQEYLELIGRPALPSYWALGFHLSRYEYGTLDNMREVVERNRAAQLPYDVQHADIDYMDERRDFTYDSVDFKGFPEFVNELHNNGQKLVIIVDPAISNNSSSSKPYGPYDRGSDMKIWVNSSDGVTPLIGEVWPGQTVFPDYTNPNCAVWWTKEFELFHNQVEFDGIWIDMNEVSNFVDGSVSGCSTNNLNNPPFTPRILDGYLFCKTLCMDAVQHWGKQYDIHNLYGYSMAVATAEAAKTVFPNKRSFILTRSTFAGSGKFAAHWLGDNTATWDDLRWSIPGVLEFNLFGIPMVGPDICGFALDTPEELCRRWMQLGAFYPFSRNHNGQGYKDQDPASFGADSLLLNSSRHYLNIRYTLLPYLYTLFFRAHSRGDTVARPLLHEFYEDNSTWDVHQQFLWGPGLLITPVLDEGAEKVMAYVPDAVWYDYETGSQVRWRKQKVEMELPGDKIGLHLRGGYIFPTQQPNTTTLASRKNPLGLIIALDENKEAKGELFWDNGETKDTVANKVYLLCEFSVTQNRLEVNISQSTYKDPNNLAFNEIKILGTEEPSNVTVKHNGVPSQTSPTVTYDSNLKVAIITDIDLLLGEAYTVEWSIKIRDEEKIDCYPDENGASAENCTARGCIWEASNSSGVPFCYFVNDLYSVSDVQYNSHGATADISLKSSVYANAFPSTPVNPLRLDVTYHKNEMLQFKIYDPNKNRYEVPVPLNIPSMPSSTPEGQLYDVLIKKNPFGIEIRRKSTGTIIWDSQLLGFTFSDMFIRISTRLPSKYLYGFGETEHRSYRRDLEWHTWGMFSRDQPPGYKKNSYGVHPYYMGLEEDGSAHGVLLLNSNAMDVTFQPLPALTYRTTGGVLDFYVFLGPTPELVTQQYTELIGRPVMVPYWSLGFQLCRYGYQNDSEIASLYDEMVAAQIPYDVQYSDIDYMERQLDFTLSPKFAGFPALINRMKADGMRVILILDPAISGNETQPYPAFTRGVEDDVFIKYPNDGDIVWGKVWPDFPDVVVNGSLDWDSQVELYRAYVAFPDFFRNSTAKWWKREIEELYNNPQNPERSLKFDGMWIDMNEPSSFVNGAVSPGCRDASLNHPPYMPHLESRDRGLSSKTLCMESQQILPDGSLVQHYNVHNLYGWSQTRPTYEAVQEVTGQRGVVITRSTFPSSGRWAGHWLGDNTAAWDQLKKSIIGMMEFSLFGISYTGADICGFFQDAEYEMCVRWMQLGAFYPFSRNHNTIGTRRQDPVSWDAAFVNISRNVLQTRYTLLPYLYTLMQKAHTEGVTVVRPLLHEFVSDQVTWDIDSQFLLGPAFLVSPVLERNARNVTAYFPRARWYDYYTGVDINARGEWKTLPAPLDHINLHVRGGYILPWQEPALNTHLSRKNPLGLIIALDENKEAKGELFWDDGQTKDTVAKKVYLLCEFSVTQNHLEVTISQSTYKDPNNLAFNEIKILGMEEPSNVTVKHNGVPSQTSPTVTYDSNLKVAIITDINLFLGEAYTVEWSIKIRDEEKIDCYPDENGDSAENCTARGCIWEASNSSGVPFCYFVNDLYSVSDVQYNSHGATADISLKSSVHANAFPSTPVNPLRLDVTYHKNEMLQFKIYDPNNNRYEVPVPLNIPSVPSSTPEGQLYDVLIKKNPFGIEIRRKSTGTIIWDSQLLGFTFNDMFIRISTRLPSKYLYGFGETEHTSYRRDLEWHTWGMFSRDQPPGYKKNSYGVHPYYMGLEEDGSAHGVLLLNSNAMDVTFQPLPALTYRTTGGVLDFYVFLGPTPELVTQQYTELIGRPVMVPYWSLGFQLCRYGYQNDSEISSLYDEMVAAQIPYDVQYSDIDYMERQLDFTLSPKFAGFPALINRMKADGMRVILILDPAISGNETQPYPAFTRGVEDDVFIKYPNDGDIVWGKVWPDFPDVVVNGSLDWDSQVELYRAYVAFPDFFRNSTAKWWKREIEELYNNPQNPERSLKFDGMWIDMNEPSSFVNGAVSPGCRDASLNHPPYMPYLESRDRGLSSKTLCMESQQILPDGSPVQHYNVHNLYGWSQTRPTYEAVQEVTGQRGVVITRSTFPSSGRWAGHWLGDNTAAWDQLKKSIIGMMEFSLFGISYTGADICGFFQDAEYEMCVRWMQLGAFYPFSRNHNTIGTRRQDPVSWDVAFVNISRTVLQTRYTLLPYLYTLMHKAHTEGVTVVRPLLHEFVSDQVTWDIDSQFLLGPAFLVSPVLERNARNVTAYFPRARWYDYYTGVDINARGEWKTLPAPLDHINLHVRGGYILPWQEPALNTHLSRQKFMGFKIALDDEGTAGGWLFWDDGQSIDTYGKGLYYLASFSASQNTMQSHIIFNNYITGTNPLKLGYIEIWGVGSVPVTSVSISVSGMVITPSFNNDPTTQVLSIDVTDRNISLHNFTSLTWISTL

[16] = target: Sterol O-acyltransferase 2 (Homo sapiens) (UniProt O75908); test: Inhibition of human ACAT2 at 100 uM
Sequence of Sterol O-acyltransferase 2 (Homo sapiens) (O75908 whole entry): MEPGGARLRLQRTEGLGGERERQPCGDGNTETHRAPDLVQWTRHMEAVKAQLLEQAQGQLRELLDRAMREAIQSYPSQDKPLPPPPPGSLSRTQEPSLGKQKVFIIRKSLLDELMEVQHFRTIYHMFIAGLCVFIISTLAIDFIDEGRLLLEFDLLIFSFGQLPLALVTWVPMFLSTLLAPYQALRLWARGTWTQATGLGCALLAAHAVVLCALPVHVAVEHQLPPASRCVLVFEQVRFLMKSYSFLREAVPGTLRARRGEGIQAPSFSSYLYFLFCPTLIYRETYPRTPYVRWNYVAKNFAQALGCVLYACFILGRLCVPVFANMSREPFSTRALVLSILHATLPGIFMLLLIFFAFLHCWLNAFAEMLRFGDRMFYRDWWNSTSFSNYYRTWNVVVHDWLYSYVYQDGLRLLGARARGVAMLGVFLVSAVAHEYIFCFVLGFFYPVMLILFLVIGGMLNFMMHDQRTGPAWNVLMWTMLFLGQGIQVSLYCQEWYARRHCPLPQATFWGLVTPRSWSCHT

[17] = target: Sterol O-acyltransferase 1 (Homo sapiens) (UniProt P35610); test: Inhibition of human ACAT1 at 100 uM
Sequence of Sterol O-acyltransferase 1 (Homo sapiens) (P35610 whole entry, looked up): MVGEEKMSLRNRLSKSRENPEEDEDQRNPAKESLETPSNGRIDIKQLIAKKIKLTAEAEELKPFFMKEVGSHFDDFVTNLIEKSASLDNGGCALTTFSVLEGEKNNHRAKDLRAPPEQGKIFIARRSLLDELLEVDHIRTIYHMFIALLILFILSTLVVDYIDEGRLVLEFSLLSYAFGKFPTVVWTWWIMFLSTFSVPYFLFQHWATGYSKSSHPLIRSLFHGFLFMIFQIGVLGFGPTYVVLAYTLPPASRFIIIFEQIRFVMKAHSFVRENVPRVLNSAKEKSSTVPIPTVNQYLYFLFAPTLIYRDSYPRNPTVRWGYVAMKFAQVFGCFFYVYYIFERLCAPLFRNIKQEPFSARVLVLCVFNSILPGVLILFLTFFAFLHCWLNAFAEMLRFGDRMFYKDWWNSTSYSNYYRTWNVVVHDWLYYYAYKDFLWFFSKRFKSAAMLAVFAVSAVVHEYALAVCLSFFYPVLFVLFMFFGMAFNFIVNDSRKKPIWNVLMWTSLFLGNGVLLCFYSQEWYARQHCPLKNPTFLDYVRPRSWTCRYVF

Candida albicans [18] = test: Antifungal activity against Candida albicans SC5314 assessed as reduction in fungal growth incubated for 24 hrs by serial dilution method; type: functional
Plasmodium falciparum [19] = test: Antiplasmodial activity against Plasmodium falciparum K1 assessed as reduction in parasitic growth by fluorescence based analysis; type: functional, organism-based

Q: `COc1ccc2c(c1CC=C(C)C)O[C@H]1c3ccc(O)c(CC=C(C)C)c3OC[C@@]21O` was tested. Which MIC50 (Staphylococcus aureus [1]) did it give?
A: The MIC50 was 6.25 µM (≈ 2.64 µg/mL).

Q: For `COc1c(CC=C(C)C)c(O)cc2c1[C@@H]1Oc3c(ccc(O)c3CC=C(C)C)[C@@H]1CO2`, which MIC [2] is on record?
A: The MIC was 50 µg/mL (≈ 118 µM).

Q: How did the IC50 (Plasmodium falciparum [3]) turn out when `CC(C)=CCc1c(O)ccc2c1O[C@H]1c3ccc(O)c(CC=C(C)C)c3OC[C@@H]21` [ERYBRAEDIN A] was run?
A: The IC50 was 3.4 µg/mL (≈ 8.66 µM).

Q: And the IC50 [4]?
A: The IC50 was 25 µg/mL (≈ 63.7 µM).

Q: And the IC50 (KB [5])?
A: The IC50 was 5.1 µg/mL (≈ 13 µM).

Q: And the IC50 (Breast carcinoma cell)?
A: The IC50 was 2.9 µg/mL (≈ 7.39 µM).

Q: And the IC50 (NCI-H187 [6])?
A: The IC50 was 2.1 µg/mL (≈ 5.35 µM).

Q: What about the MIC (Enterococcus [7]) of the same compound?
A: The MIC was 1.56 µg/mL (≈ 3.97 µM).

Q: What about the MIC (Enterococcus [8]) of the same compound?
A: The MIC was 3.13 µg/mL (≈ 7.97 µM).

Q: What about the MIC (Streptococcus agalactiae) of the same compound?
A: Its MIC is 0.78 µg/mL (≈ 1.99 µM).

Q: What does the source list for `COc1ccc2c(c1CC=C(C)C)OC1c3ccc(O)cc3OCC21` (centres undefined)?
A: IC50 (Staphylococcus aureus [9]): 4 µg/mL (≈ 11.8 µM); IC50 (Staphylococcus aureus [10]): 4 µg/mL (≈ 11.8 µM); IC50 (KB [11]): 12.5 µg/mL (≈ 37 µM); IC50 (MCF7): 7.51 µg/mL (≈ 22.2 µM); IC50 (NCI-H187 [12]): 5.37 µg/mL (≈ 15.9 µM)

Q: `COc1ccc2c(c1CC=C(C)C)O[C@H]1c3ccc(O)cc3OCC21` (some centres undefined) was tested. Which IC50 (Staphylococcus aureus [9]) did it give?
A: The IC50 was 8 µg/mL (≈ 23.6 µM).

Q: What about the IC50 (Staphylococcus aureus [10]) of the same compound?
A: The IC50 was 16 µg/mL (≈ 47.3 µM).

Q: What about the IC50 (Plasmodium falciparum [13]) of the same compound?
A: The IC50 was 1.83 µg/mL (≈ 5.41 µM).

Q: What about the MIC (Candida albicans [14]) of the same compound?
A: Its MIC is 3.8 µg/mL (≈ 11.2 µM).

Q: And the MIC (Candida albicans [15])?
A: Its MIC is 1.9 µg/mL (≈ 5.61 µM).

Q: What does the source list for `CC1(C)C=Cc2c(ccc3c2OC2c4ccc(O)cc4OCC32)O1` (centres undefined)?
A: IC50 (Maltase-glucoamylase): 6 µM; inhibition [16]: 67.4%; inhibition [17]: 85.9%

Q: For `Oc1cc2c(cc1O)[C@@H]1Oc3cc4c(cc3[C@@H]1CO2)OCO4`, which MIC (Candida albicans [18]) is on record?
A: Its MIC is 32 µg/mL (≈ 107 µM).

Q: What does the source list for `CC(C)=CCc1c(O)ccc2c1O[C@H]1c3ccc(O)cc3OC[C@@H]21` [PHASEOLLIDIN]?
A: IC50 (KB [5]): 7.7 µg/mL (≈ 23.7 µM); IC50 (Breast carcinoma cell): 14.3 µg/mL (≈ 44.1 µM); IC50 (NCI-H187 [6]): 5.05 µg/mL (≈ 15.6 µM); IC50 (Plasmodium falciparum [19]): 9.09 µg/mL (≈ 28 µM); IC50 (Plasmodium falciparum [13]): 1.66 µg/mL (≈ 5.12 µM)
